Test results: patent publication US20030206876A1, “Composition” (priority 2000, published 2003)

Tested on: oral bacteria (production of volatile sulfur compounds from cysteine)
Assay: cysteine challenge method for halitosis (oral malodor) efficacy, VSC response measured with Halimeter
Type: in vivo
Procedure: The ability of low doses of chlorhexidine to combat halitosis (oral malodor) was assessed using the cysteine challenge method. This measures the ability of oral bacteria to produce volatile sulfur compounds (VSC), the major odor component of oral malodor, from cysteine and is correlated with organoleptic evaluation by odor judges. Testing consists of rinsing the mouth with 5 ml of 6 mM cysteine for 30 seconds and measuring the resulting the VSC response (mainly hydrogen sulphide) with a chemical sensor instrument such as the Halimeter. Cysteine challenge testing consisted of the obtaining of an initial baseline VSC determination, the subsequent introduction of the cysteine challenge substrate, measuring the VSC response over a 20 minute period, introducing the test rinse and at set times thereafter, repeating the cysteine challenge for up to 7 hours. Inhibition was assessed quantitatively by the degree of inhibition of VSC production from cysteine by the test agent, chlorhexidine digluconate, as compared to VSC production from cysteine at baseline. Duration of the inhibition was assessed as the time it takes for VSC production with successive cysteine challenges to return to that seen at baseline.

## [H]/N=C(\N/C(=N/[H])NCCCCCCNC(=N)NC(=N)Nc1ccc(Cl)cc1)Nc1ccc(Cl)cc1 [chlorhexidine digluconate]
Chlorhexidine digluconate 0.020, 0.015, 0.0125 and 0.010% by weight of the composition
  inhibition of production of VSCs at lower concentrations: Similarly advantageous results
mouthrinse, chlorhexidine digluconate 0.025% (v/v)
  time after the rinse at which most inhibition of VSC production was seen: two
mouthrinse, chlorhexidine digluconate 0.025% (v/v), cysteine challenge 5 ml of 6 mM cysteine for 30 seconds
  inhibition of production of VSCs from cysteine compared to baseline: significantly inhibit
mouthrinse, chlorhexidine digluconate 0.025% (v/v), successive cysteine challenges for up to 7 hours
  duration of the inhibition of VSC production from the initial rinse (gradually decreasing levels): over 7 hours
